Assay results reported in ChEMBL document CHEMBL1201862, “PubChem BioAssay data set” (2004).
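In this assay, cells in 96-well plates receive the compound at five concentrations for 48 hours. Endpoints are linearly interpolated between the surrounding concentrations. Here, GI50 denotes the concentration required for 50% inhibition of growth.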 Activity calls are given as the source filed them. Cut-off read from the data, not from the text of the source: active = GI50 up to about 1.1 µM and inactive = higher. Non-standard residues stand in square brackets, D forms with d. Residues, ends and D or L forms follow the SMILES beside them. ξ: configuration not given here. *: point of attachment. ξNMeF = CNC(Cc1ccccc1)C(=O)O; NMeV = CN[C@H](C(=O)O)C(C)C; Boc = CC(C)(C)OC(=O)*; OBn = c1ccc(CO*)cc1

How the values were obtained:
Test in all cases: NCI-60 cell line screen, 48 h
KM12 = system: KM12
ACHN = system: ACHN
UACC-257 = system: UACC-257
SK-MEL-5 = system: SK-MEL-5
HL-60 = system: HL-60
OVCAR-4 = system: OVCAR-4
NCI-H23 = system: NCI-H23
SK-MEL-28 = system: SK-MEL-28
RPMI-8226 = system: RPMI-8226
K562 = system: K562
HOP-92 = system: HOP-92
OVCAR-8 = system: OVCAR-8
SF-268 = system: SF-268
SR = system: SR
M14 = system: M14
SF-539 = system: SF-539
NCI-H226 = system: NCI-H226
786-0 = system: 786-0
MDA-MB-231 = system: MDA-MB-231

Row | Compound | GI50 (KM12) | GI50 (ACHN) | GI50 (UACC-257) | GI50 (SK-MEL-5) | GI50 (HL-60) | GI50 (OVCAR-4) | GI50 (NCI-H23) | GI50 (SK-MEL-28) | GI50 (RPMI-8226) | GI50 (K562) | GI50 (HOP-92) | GI50 (OVCAR-8) | GI50 (SF-268) | GI50 (SR) | GI50 (M14) | GI50 (SF-539) | GI50 (NCI-H226) | GI50 (786-0) | GI50 (MDA-MB-231)
1 | COc1nc(NC2OCC(OC(C)=O)C(OC(C)=O)C2OC(C)=O)c(/N=C(\C)C(C)=O)c(=O)n1C (stereo not drawn) | > 100 µM (inactive) | > 100 µM (inactive) | > 100 µM (inactive) | > 100 µM (inactive) | > 100 µM (inactive) | > 100 µM (inactive) | > 100 µM (inactive) | > 100 µM (inactive) | > 100 µM (inactive) | > 100 µM (inactive) | > 100 µM (inactive) | > 100 µM (inactive) | > 100 µM (inactive) | > 100 µM (inactive) | > 100 µM (inactive) | > 100 µM (inactive) | 0.63 µM (active) |  | 
2 | CCCCc1c2c(nc3c1CCCC3O)/C(=C/c1ccccc1)CCC2 (stereo not drawn) | 18.7 µM (inactive) | 34.8 µM (inactive) | 30 µM (inactive) | 21.7 µM (inactive) | 17.3 µM (inactive) | 63.7 µM (inactive) | 27.3 µM (inactive) | 33.5 µM (inactive) | 16.8 µM (inactive) | 11.4 µM (inactive) | 38.7 µM (inactive) | 32 µM (inactive) | 31.3 µM (inactive) | 14 µM (inactive) | 23.1 µM (inactive) | 28.1 µM (inactive) | 26.1 µM (inactive) | 22.3 µM (inactive) | 
3 | COP(=O)(OC)C(=O)N1N(c2ccc([N+](=O)[O-])cc2)C(=O)C(C)NC1(NNc1ccc([N+](=O)[O-])cc1)P(=O)(OC)OC (stereo not drawn) | > 100 µM (inactive) | > 100 µM (inactive) | > 100 µM (inactive) | > 100 µM (inactive) | 64.6 µM (inactive) | > 100 µM (inactive) | > 100 µM (inactive) | > 100 µM (inactive) | > 100 µM (inactive) | > 100 µM (inactive) | > 100 µM (inactive) | > 100 µM (inactive) | > 100 µM (inactive) | > 100 µM (inactive) | > 100 µM (inactive) | > 100 µM (inactive) | > 100 µM (inactive) | > 100 µM (inactive) | 
4 | CC1(C)COC(c2cccc(C(=O)c3ccccc3)c2)=N1 | 44.6 µM (inactive) | 64.4 µM (inactive) | 26.2 µM (inactive) | 17.1 µM (inactive) | 18.6 µM (inactive) | 31 µM (inactive) | 34.1 µM (inactive) | 42.8 µM (inactive) | 36.8 µM (inactive) | 36.2 µM (inactive) | 25.9 µM (inactive) | 48.5 µM (inactive) | 90.4 µM (inactive) | 32.3 µM (inactive) |  |  |  | 61.1 µM (inactive) | 33.4 µM (inactive)
5 | COC(=O)C(=O)C(C(=O)C(=O)Nc1ccc(Cl)cc1C)c1nc2ccc(C(=O)c3ccccc3)cc2nc1O (stereo not drawn) | 63 µM (inactive) | 76.9 µM (inactive) | 97.9 µM (inactive) |  | 96.6 µM (inactive) | > 100 µM (inactive) | > 100 µM (inactive) |  | > 100 µM (inactive) | 29 µM (inactive) | 49.8 µM (inactive) | > 100 µM (inactive) | > 100 µM (inactive) | 43.5 µM (inactive) | > 100 µM (inactive) | 58.5 µM (inactive) | 33.5 µM (inactive) | > 100 µM (inactive) | 
6 | CC(=O)c1ccc(NC(=O)C(=O)CC(=O)c2sc(-n3nc(-c4ccccc4)cc3-c3ccccc3)nc2C)cc1 | > 100 µM (inactive) | > 100 µM (inactive) | > 100 µM (inactive) |  | > 100 µM (inactive) | > 100 µM (inactive) | > 100 µM (inactive) |  | > 100 µM (inactive) | > 100 µM (inactive) |  | > 100 µM (inactive) | > 100 µM (inactive) | > 100 µM (inactive) | > 100 µM (inactive) | > 100 µM (inactive) | > 100 µM (inactive) | > 100 µM (inactive) | 
7 | CC1(C)C2=CCCC(=O)[C@@]2(C)CC[C@@H]1O | > 100 µM (inactive) | > 100 µM (inactive) | > 100 µM (inactive) | > 100 µM (inactive) | > 100 µM (inactive) | > 100 µM (inactive) | > 100 µM (inactive) | > 100 µM (inactive) | > 100 µM (inactive) | > 100 µM (inactive) | > 100 µM (inactive) | > 100 µM (inactive) | > 100 µM (inactive) | > 100 µM (inactive) | > 100 µM (inactive) | > 100 µM (inactive) | > 100 µM (inactive) | > 100 µM (inactive) | 
8 | N#CCCN(CCC#N)c1ccc(/C=C(\NC(=O)c2cc([N+](=O)[O-])ccc2Cl)C(=O)Nc2ccccc2)cc1 | > 100 µM (inactive) | 12.2 µM (inactive) |  | > 100 µM (inactive) |  | > 100 µM (inactive) | > 100 µM (inactive) | > 100 µM (inactive) | > 100 µM (inactive) | 6.82 µM (inactive) | > 100 µM (inactive) | 83.9 µM (inactive) | 30.8 µM (inactive) | 36.3 µM (inactive) |  | 49.7 µM (inactive) | 64.9 µM (inactive) |  | 
9 | Cc1cc(O)nc(NN2C(Cl)C(=O)C2c2ccc([N+](=O)[O-])cc2)n1 (stereo not drawn) | > 10 µM (inactive) | 7.4 µM (inactive) | 16 µM (inactive) | 13.5 µM (inactive) | 4.12 µM (inactive) | 13.7 µM (inactive) | 7.18 µM (inactive) | 11.9 µM (inactive) | 7.35 µM (inactive) | 3.1 µM (inactive) | 13.7 µM (inactive) | 17.8 µM (inactive) | 13.1 µM (inactive) | 6.15 µM (inactive) | 11 µM (inactive) | 10.8 µM (inactive) |  |  | 
10 | CCN(CC)CCNc1ccc2ncn3c4ccccc4c(=O)c1c23 | 5.2 µM (inactive) | 2.24 µM (inactive) | 4.23 µM (inactive) | 3.52 µM (inactive) | 5.74 µM (inactive) | 2.96 µM (inactive) | 7.06 µM (inactive) | 4.12 µM (inactive) | 4.59 µM (inactive) | 8.49 µM (inactive) | 2.28 µM (inactive) | 2.77 µM (inactive) | 3.99 µM (inactive) | 1.63 µM (inactive) | 4.91 µM (inactive) | 5.86 µM (inactive) | 2.18 µM (inactive) | 3.43 µM (inactive) | 
11 | O=C(N/C(=C\c1ccccc1Cl)c1nc2ccccc2[nH]1)c1ccccc1 | 32.5 µM (inactive) | 30.5 µM (inactive) |  | 17.4 µM (inactive) | 25.7 µM (inactive) | 29 µM (inactive) | 25.1 µM (inactive) | 40.9 µM (inactive) |  | 24.5 µM (inactive) | 10.3 µM (inactive) | 27.5 µM (inactive) | 32.7 µM (inactive) | 23.3 µM (inactive) | 19.8 µM (inactive) | 32.7 µM (inactive) |  | 32.7 µM (inactive) | 
12 | CCCCN1C(=O)NC(Cc2ccccc2)C1=O (stereo not drawn) | > 100 µM (inactive) | > 100 µM (inactive) | > 100 µM (inactive) |  |  |  | > 100 µM (inactive) | > 100 µM (inactive) |  |  |  | > 100 µM (inactive) | > 100 µM (inactive) | > 100 µM (inactive) | > 100 µM (inactive) | > 100 µM (inactive) | > 100 µM (inactive) |  | 
13 | COP1(=O)Oc2ccccc2C(=O)C(C(F)(F)F)(C(F)(F)F)O1 (stereo not drawn) | > 100 µM (inactive) | > 100 µM (inactive) | > 100 µM (inactive) | > 100 µM (inactive) | > 100 µM (inactive) | > 100 µM (inactive) | > 100 µM (inactive) | > 100 µM (inactive) | 42.9 µM (inactive) | > 100 µM (inactive) | 56.8 µM (inactive) | > 100 µM (inactive) | > 100 µM (inactive) | > 100 µM (inactive) | > 100 µM (inactive) | > 100 µM (inactive) |  | > 100 µM (inactive) | 
14 | COC1CCC2C(NS(=O)(=O)c3ccc(C)cc3)CCCC2O1.Cc1ccc(S(=O)(=O)NC(C)(C)C=O)cc1 (stereo not drawn) | 12.4 µM (inactive) | 24.8 µM (inactive) | 3.29 µM (inactive) | 7.76 µM (inactive) | 8.18 µM (inactive) | 12.6 µM (inactive) | 11.1 µM (inactive) | 30 µM (inactive) | 6.21 µM (inactive) | 9.68 µM (inactive) | 3.66 µM (inactive) | 16.1 µM (inactive) | > 34.5 µM (inactive) |  | 16.7 µM (inactive) | 20 µM (inactive) | 10.3 µM (inactive) | 19.9 µM (inactive) | 
15 | O=C(NO)c1ccc(O)c(O)c1 | > 100 µM (inactive) | > 100 µM (inactive) | > 100 µM (inactive) | > 100 µM (inactive) | 9.77 µM (inactive) | > 100 µM (inactive) | > 100 µM (inactive) | > 100 µM (inactive) | 32.4 µM (inactive) | 26.5 µM (inactive) | > 100 µM (inactive) | 79.1 µM (inactive) | > 100 µM (inactive) | 36.4 µM (inactive) | > 100 µM (inactive) | > 100 µM (inactive) | > 100 µM (inactive) | > 100 µM (inactive) | 
16 | CC(C)[C@@H](C(=O)N(C)[C@H](C(=O)N1CCC[C@H]1C(=O)OCc1ccccc1)C(C)C)N(C)C(=O)C(Cc1ccccc1)N(C)C(=O)[C@H](NC(=O)OC(C)(C)C)C(C)C (stereo partly drawn) (Boc-[dV][ξNMeF][NMeV][NMeV]P-OBn) | > 10 µM (inactive) |  | > 31.6 µM (inactive) | 15.6 µM (inactive) | 19 µM (inactive) |  |  | > 31.6 µM (inactive) | 10.4 µM (inactive) | 13.5 µM (inactive) | 8.34 µM (inactive) | > 31.6 µM (inactive) | > 31.6 µM (inactive) | 19.7 µM (inactive) |  | > 31.6 µM (inactive) | > 100 µM (inactive) | > 46.8 µM (inactive) | 
